Test results reported in US20240309007A1, “CRYSTALLINE FORMS OF 3-{4-[(2R)-2-AMINOPROPOXY]PHENYL}-N-[(1R)- 1-(3-FLUOROPHENYL) ETHYL]IMIDAZO[1,2-B]PYRIDAZIN-6-AMINE AND SALTS THEREOF” (ANHEART THERAPEUTICS (HANGZHOU) CO., LTD., priority 2021, published 2024).

Assay: Stability under stress conditions (XRPD and HPLC purity)
Format: physicochemical
Description: A predetermined amount of the crystalline form A of Compound 1 adipate was stored under the following conditions: (1) open to air under 25° C./60% RH for one or two weeks, (2) open to air under 40° C./75% RH for one or two weeks, (3) open to air under 80° C. for one day, and (4) exposed to light for 10 days. Crystalline form and chemical impurity were checked by XRPD and HPLC, respectively.
In Table 5, Sample No. 1 was a crystalline form A starting material before any test; Samples Nos. 2 and 3 were subject to condition (1) described above; Samples Nos. 4 and 5 were subject to condition (2) described above; Samples No. 6 was subject to condition (3) described above; and Samples Nos. 7 and 8 were subject to condition (4) described above where Sample No. 7 was not covered and Sample No. 8 was completely covered by a tin foil as a comparison.

[1] = Exposure to light (1.2 million lux h), 10 days, completely covered by a tin foil (comparison)
[2] = Exposure to light (1.2 million lux h), 10 days, not covered
[3] = open to air, 25° C./60% RH, 1 week
[4] = open to air, 25° C./60% RH, 2 weeks
[5] = open to air, 40° C./75% RH, 1 week
[6] = open to air, 40° C./75% RH, 2 weeks
[7] = starting material before any test

C[C@@H](N)COc1ccc(-c2cnc3ccc(N[C@H](C)c4cccc(F)c4)nn23)cc1 [crystalline form A of Compound 1 adipate, 3-{4-[(2R)-2-aminopropoxy]phenyl}-N-[(1R)-1-(3-fluorophenyl)ethyl]imidazo[1,2-b]pyridazin-6-amine]
crystalline form on storage (physical stability): remains unchanged | physical and chemical stability (in words): superior physical and chemical stability | purity on storage (chemical stability): essentially unchanged | Purity (%) [1]: 99.81% | XRPD [1]: Form A | Purity (%) [2]: 99.79% | XRPD [2]: Form A | Purity (%) [3]: 99.81% | XRPD [3]: Form A | Purity (%) [4]: 99.79% | XRPD [4]: Form A | Purity (%) [5]: 99.84% | XRPD [5]: Form A | Purity (%) [6]: 99.81% | XRPD [6]: Form A | Purity (%) (open to air, 80° C., 1 day): 99.68% | XRPD (open to air, 80° C., 1 day): Form A | Purity (%) [7]: 99.86% | XRPD [7]: Form A
